In one assay the target is T1, KAT6A (Homo sapiens, UniProt Q92794).
T1 construct: Recombinant human His-tagged Kat6a protein (amino acids 194-810); His; made in house; host or cells: Baculovirus-infected Sf9 insect cells
The experiment in a line: Kat6a activity assay (TR-FRET, acetylation of biotinylated histone H4 peptide). The format is biochemical. The note with it: recombinant human His-tagged Kat6a (amino acids 194-810), 60 mins at 22° C., read-out: KAT6A-DPF/HAT domain IC50 [mol/l] (arithmetic mean). From the text:
Kat6a inhibitory activities of the compounds described in the present invention were quantified using a Fluorescence Resonance Energy Transfer (TR-FRET) assay which measures acetylation of a synthetic, biotinylated Histone-H4-derived peptide by the enzyme.
Recombinant human His-tagged Kat6a protein (amino acids 194-810), was purified in-house from Baculovirus-infected insect cells (Sf9). Histone H4 peptide (amino acids 1-24, […]-VLRD-K(Btn)-amide), which was used as substrate, was synthesized by Biosyntan GmbH, Berlin, Germany. Acetyl Coenzyme A was purchased from Sigma-Aldrich (#A-2056).
Kat6a was incubated for 60 mins at 22° C. in the presence of different concentrations of test substances (0 μM, and within the range 0.01-20 μM) in assay buffer [25 mM Tris/HCl pH 8, 1 mM EGTA, 2.5 mM Glutathion, 0.02% Chicken Albumin, 0.05% Pluronic F127, 25 mM NaCl, 220 nM H4 peptide and 600 nM Acetyl Coenzyme A].
The reaction was stopped by addition of Detection Solution (25 mM HEPES pH 7.5, 0.1% BSA, 22 nM SAXL665 (Cisbio #610SAXLE), 100 μM Anacardic Acid (Enzo #ALX-270-381), 1 nM Anti-Histone H4 (ACETYL K8) Antibody (ABCAM #AB15823) and 0.5 nM Anti-Rabbit IgG Eu (Perkin Elmer #AD0083).
The fluorescence emission at 620 nm and 665 nm after excitation at 330-350 nm was measured in a TR-FRET measuring instrument, for instance a Rubystar or a Pherastar (both from BMG Lab Technologies, Offenburg, Germany) or a Viewlux (Perkin-Elmer). The ratio of the emission at 665 nm and at […] was used as indicator of the amount of acetylated peptide.
The resulting data (ratio) were normalized, taking 0% inhibition as the mean value of control measurements where all reagents were included. In this case 50 nl DMSO were used instead of compounds. […] IC50 values were determined by regression analysis based on a 4 parameter equation (minimum, maximum, ICM, Hill; Y=Max+(Min−Max)/(1+(X/ICso) Hill) using the Screener Software (Genedata).

Assay [1] concerns ESR1 transcription in MVLN cells. The experiment in a line: Repression of ESR1 transcription, MVLN luciferase reporter assay. The conditions noted are these: Homo sapiens, luciferase signal after 24 h, read-out: MVLN reporter assay, IC50[M] (arithmetic mean). In kind it is cell-based. An excerpt:
KAT6A controls transcription of the ESR1 gene in breast cancer cells. Compound treatment that interferes with this mechanism was quantified using MVLN cells. These cells constitutively express the ER and are stably transfected with the luciferase (LUC) reporter gene and the corresponding hormone responsive element derived from the 5′-flanking region of the Xenopus Vitellogenin A2 gene (Pons et al., 1990, Demirpense et al., 1993, Joyeux et al., 1993). The repressive effect on ERα transcription activity of a test chemical is directly related to the luciferase measured in the lysate of treated MVLN cells.
Each sample was prepared as duplicate and rim wells were excluded. For luciferase signal determination 100 μl of a 1:1 mixture of Steadylite plus (Perkin Elmer; 6016759) and assay medium was added after 24 h for 15 minutes and measured in Victor X3 (Perkin Elmer). To exclude any effects caused by cell loss during the treatment, cell density was determined using Alamar Blue (Invitrogen; DAL1100). Prior to the luciferase measurement 10 μl Alamar Blue were added to each well and the plates were incubated for 2 h in the incubator. Then fluorescence was measured with Victor X3 (Perkin Elmer) at 530 nm/590 nm.

Our source for the IC50 values is patent US20240287048A1, “SUBSTITUTED ACYL SULFONAMIDES FOR TREATING CANCER” (The Broad Institute, Inc., priority 2020, published 2024).

T1 sequence (Q92794 194-810): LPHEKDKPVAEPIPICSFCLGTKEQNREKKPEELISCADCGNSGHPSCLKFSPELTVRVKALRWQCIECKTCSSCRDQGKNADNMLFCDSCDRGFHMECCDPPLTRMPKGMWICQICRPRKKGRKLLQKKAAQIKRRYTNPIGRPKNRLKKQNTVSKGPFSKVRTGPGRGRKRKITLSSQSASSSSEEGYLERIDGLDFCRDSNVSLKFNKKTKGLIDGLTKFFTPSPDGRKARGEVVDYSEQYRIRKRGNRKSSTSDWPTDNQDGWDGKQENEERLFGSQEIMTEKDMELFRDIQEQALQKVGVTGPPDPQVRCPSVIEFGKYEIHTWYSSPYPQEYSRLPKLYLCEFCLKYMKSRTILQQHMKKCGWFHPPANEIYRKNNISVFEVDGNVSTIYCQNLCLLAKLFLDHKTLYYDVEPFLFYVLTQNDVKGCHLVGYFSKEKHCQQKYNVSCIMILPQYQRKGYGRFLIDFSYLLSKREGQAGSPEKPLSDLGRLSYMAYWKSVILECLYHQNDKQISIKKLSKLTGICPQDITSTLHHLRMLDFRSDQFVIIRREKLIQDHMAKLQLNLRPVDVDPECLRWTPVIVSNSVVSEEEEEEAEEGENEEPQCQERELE

`CCOc1c(F)cccc1S(=O)(=O)NC(=O)c1cc2c(F)cc(C3CC3)cc2o1` [Example 28, 6-Cyclopropyl-N-(2-ethoxy-3-fluoro-phenyl)sulfonyl-4-fluoro-benzofuran-2-carboxamide]: the IC50 at KAT6A was determined as 106 nM; in assay [1], 1.7e-06 M.

Take `CCOc1cc(F)ccc1S(=O)(=O)NC(=O)c1cc2c(F)cc(C3CC3)cc2o1` [Example 30, 6-Cyclopropyl-N-(2-ethoxy-4-fluoro-phenyl)sulfonyl-4-fluoro-benzofuran-2-carboxamide]: the values for the IC50 (at KAT6A; in assay [1]) were 37.3 nM and 2.84e-07 M, respectively.

On to `CCOc1ccc(C(F)(F)F)cc1S(=O)(=O)NC(=O)c1cc2c(F)cc(C3CC3)cc2o1` [Example 31, 6-Cyclopropyl-N-[2-ethoxy-5-(trifluoromethyl)phenyl]sulfonyl-4-fluoro-benzofuran-2-carboxamide], for which the IC50 on KAT6A came to 8.99 nM; in assay [1] it was 2.31e-07 M.

With `CCOc1ccc(F)cc1S(=O)(=O)NC(=O)c1cc2c(F)cc(C3CC3)cc2o1` [Example 32, 6-Cyclopropyl-N-(2-ethoxy-5-fluoro-phenyl)sulfonyl-4-fluoro-benzofuran-2-carboxamide], the IC50 stood at 55.6 nM on KAT6A and 4.23e-07 M in assay [1].

Turning to `CCOc1ccc(Oc2ccccc2)cc1S(=O)(=O)NC(=O)c1cc2c(F)cc(C3CC3)cc2o1` [Example 33, 6-Cyclopropyl-N-(2-ethoxy-5-phenoxy-phenyl)sulfonyl-4-fluoro-benzofuran-2-carboxamide], the IC50 was 6.32 nM on KAT6A and 1.74e-06 M in assay [1].

For the molecule `CCOc1ccc(OC(F)(F)F)cc1S(=O)(=O)NC(=O)c1cc2c(F)cc(C3CC3)cc2o1` [Example 34, 6-Cyclopropyl-N-[2-ethoxy-5-(trifluoromethoxy)phenyl]sulfonyl-4-fluoro-benzofuran-2-carboxamide], the IC50 amounted to 20.8 nM at KAT6A and 1.42e-06 M in assay [1].

Consider `CC(C)c1ccc(OCc2ccccc2)c(S(=O)(=O)NC(=O)c2cc3c(F)cc(C4CC4)cc3o2)c1` [Example 35, N-(2-Benzyloxy-5-isopropyl-phenyl)sulfonyl-6-cyclopropyl-4-fluoro-benzofuran-2-carboxamide], for which the IC50 at KAT6A is 5.99 nM; in assay [1] it was 2.19e-07 M.

As for `CC(C)c1ccc(OCC2CC2)c(S(=O)(=O)NC(=O)c2cc3c(F)cc(C4CC4)cc3o2)c1` [Example 36, 6-Cyclopropyl-N-[2-(cyclopropylmethoxy)-5-isopropyl-phenyl]sulfonyl-4-fluoro-benzofuran-2-carboxamide], the IC50 worked out at 3.01 nM at KAT6A and 1.41e-07 M in assay [1].

For `CCCOc1ccccc1S(=O)(=O)NC(=O)c1cc2c(F)cc(C3CC3)cc2o1` [Example 40, 6-Cyclopropyl-4-fluoro-N-(2-propoxyphenyl)sulfonyl-benzofuran-2-carboxamide], the figures for the IC50 (on KAT6A; in assay [1]) were 24.8 nM and 6.63e-07 M, respectively.

Take `CC(C)c1ccc(OCC(F)(F)F)c(S(=O)(=O)NC(=O)c2cc3c(F)cc(C4CC4)cc3o2)c1` [Example 41, 6-Cyclopropyl-4-fluoro-N-[5-isopropyl-2-(2,2,2-trifluoroethoxy)phenyl]sulfonyl-benzofuran-2-carboxamide]: the values for the IC50 (on KAT6A; in assay [1]) were 4.99 nM and 2.98e-07 M, respectively.

Consider `O=C(NS(=O)(=O)c1ccccc1)c1cc2c(OC(F)F)cc(C3CC3)cc2o1` [Example 46, N-(benzenesulfonyl)-6-cyclopropyl-4-(difluoromethoxy)benzofuran-2-carboxamide], for which the IC50 at KAT6A worked out at 148 nM; in assay [1], 1.77e-05 M.

As for `O=C(NS(=O)(=O)c1ccccc1-c1ccccc1)c1cc2c(OC(F)F)cc(C3CC3)cc2o1` [Example 48, 6-Cyclopropyl-4-(difluoromethoxy)-N-(2-phenylphenyl)sulfonyl-benzofuran-2-carboxamide], the IC50 on KAT6A amounted to 26.7 nM; in assay [1] it was 5.54e-06 M.

As for `CCOc1ccccc1S(=O)(=O)NC(=O)c1cc2c(OC(F)F)cc(C3CC3)cc2o1` [Example 49, 6-Cyclopropyl-4-(difluoromethoxy)-N-(2-ethoxyphenyl)sulfonyl-benzofuran-2-carboxamide], the results for the IC50 (at KAT6A; in assay [1]) were 28.6 nM and 6.97e-06 M, respectively.

With `CCOc1ccccc1S(=O)(=O)NC(=O)c1cc2c(-n3ccnc3)cc(C3CC3)cc2o1` [Example 58, 6-Cyclopropyl-N-(2-ethoxyphenyl)sulfonyl-4-imidazol-1-yl-benzofuran-2-carboxamide], the results for the IC50 (on KAT6A; in assay [1]) were 39.5 nM and greater than 2e-05 M, respectively.

`CC(C)(C)c1ccc(OC2CC2)c(S(=O)(=O)NC(=O)c2cc3c(F)cc(C4CC4)cc3o2)c1` [Example 59, N-((5-(tert-butyl)-2-cyclopropoxyphenyl)sulfonyl)-6-cyclopropyl-4-fluorobenzofuran-2-carboxamide]: the IC50 came to 3.58 nM at KAT6A and 1.04e-07 M in assay [1].

For the molecule `CC(C)(C)c1ccc(OCc2ccccc2)c(S(=O)(=O)NC(=O)c2cc3c(F)cc(C4CC4)cc3o2)c1` [Example 60, N-[(2-(Benzyloxy)-5-(tert-butyl)phenyl)sulfonyl]-6-cyclopropyl-4-fluorobenzofuran-2-carboxamide], the results for the IC50 (on KAT6A; in assay [1]) were 2.67 nM and 8.24e-08 M, respectively.

Turning to `CC(C)(C)c1ccc(OCC2CC2)c(S(=O)(=O)NC(=O)c2cc3c(F)cc(C4CC4)cc3o2)c1` [Example 61, N-((5-(tert-butyl)-2-(cyclopropylmethoxy)phenyl)sulfonyl)-6-cyclopropyl-4-fluorobenzofuran-2-carboxamide], the IC50 on KAT6A came to 2.92 nM; in assay [1] it was 1.11e-07 M.

`CC(C)(C)c1ccc(OCC(F)(F)F)c(S(=O)(=O)NC(=O)c2cc3c(F)cc(C4CC4)cc3o2)c1` [Example 62, N-((5-(tert-butyl)-2-(2,2,2-trifluoroethoxy)phenyl)sulfonyl)-6-cyclopropyl-4-fluorobenzofuran-2-carboxamide]: the IC50 at KAT6A amounted to 4.16 nM; in assay [1], 2.4e-07 M.

As to `CC(C)(C)c1ccc(OC2CCC2)c(S(=O)(=O)NC(=O)c2cc3c(F)cc(C4CC4)cc3o2)c1` [Example 63, N-((5-(tert-Butyl)-2-cyclobutoxyphenyl)sulfonyl)-6-cyclopropyl-4-fluorobenzofuran-2-carboxamide], the IC50 on KAT6A turned out to be 2.46 nM; in assay [1], 2.24e-07 M.

For the molecule `CC(C)Oc1ccc(C(C)(C)C)cc1S(=O)(=O)NC(=O)c1cc2c(F)cc(C3CC3)cc2o1` [Example 64, N-((5-(tert-Butyl)-2-isopropoxyphenyl)sulfonyl)-6-cyclopropyl-4-fluorobenzofuran-2-carboxamide], the IC50 on KAT6A came to 4.33 nM; in assay [1], 1.76e-07 M.

Consider `CC(C)c1ccc(OC2CCC2)c(S(=O)(=O)NC(=O)c2cc3c(F)cc(C4CC4)cc3o2)c1` [Example 65, N-[(2-Cyclobutoxy-5-isopropylphenyl)sulfonyl]-6-cyclopropyl-4-fluorobenzofuran-2-carboxamide], for which the IC50 worked out at 2.09 nM at KAT6A and 1.49e-07 M in assay [1].

In the case of `CC(C)c1ccc(OCC2CC2(F)F)c(S(=O)(=O)NC(=O)c2cc3c(F)cc(C4CC4)cc3o2)c1` (stereo not shown) [Example 67, 6-Cyclopropyl-N-{(2-[(2,2-difluorocyclopropyl)methoxy)-5-isopropylphenyl]sulfonyl}-4-fluorobenzofuran-2-carboxamide], the values for the IC50 (on KAT6A; in assay [1]) were 4.5 nM and 8.29e-08 M, respectively.

On to `CCOc1ccc(C(C)C)cc1S(=O)(=O)NC(=O)c1cc2c(F)cc(C3CC3)cc2o1` [Example 72, 6-Cyclopropyl-N-(2-ethoxy-5-isopropyl-phenyl)sulfonyl-4-fluoro-benzofuran-2-carboxamide], for which the IC50 on KAT6A was found to be 4.79 nM; in assay [1], 1.23e-07 M.
